Measurements: patent publication US8541607B2, “Disulfide, sulfide, sulfoxide, and sulfone derivatives of cyclic sugars and uses thereof” (Lacer, S.A., priority 2003, dated 2013)
Where a name gives a salt, the structure may show the parent alone. Read-outs that look alike come from different tables or passages of the source. Values belong to the molecule of their own block, whether it stands above or below them.

Assays:
[1] = test system: arterial rings; assay: Test of vasorelaxation on arterial rings contracted with phenylephrine; format: cell-based; settings: read-out: EC50 (vasodilatation equal to 50% of the maximum tone)
Protocol: The method used in the assays is substantially the same as described in following references: • * Furchgot, R. F., “Methods in nitric oxide research”; Feelisch & Stamler, eds., John Wiley & Sons, Chichester, England, pp 567-581. • * Trongvanbichnam K., et al., Jpn. J. Pharmacol. 71 (1996); 167-173. • * Sales, E., at al., Eur. J. Pharmacol. 258 (1994); 47-55.
The different compounds are tested at 5 different concentrations, at a concentration range from 0.0001 to 10 mM, using from 6 to 9 arterial rings for each compound. The obtained results are compared to those from the isosorbide 5-mononitrate, which is used as reference product.
The results are shown in table 1 below and are provided as EC50 (effective concentration 50), which is the concentration of each of the tested, compounds yielding a vasodilatation equal to 50% of the maximum tone at which the artery ring has been contracted with 1 μM of Phenylephrine.

[2] = test system: heart (AVP-induced coronary vasoconstriction); assay: In vivo protection against ischemia-reperfusion damage in the heart (arginine-vasopressin induced S-wave depression); settings: p.o.; for S-wave decrement: 1 h before AVP 0.3 U/kg, vehicle 46.2 ± 4.9
Protocol: Experiments were performed according to the model previously described by Hirata Y at al (Journal of Cardiovascular Pharmacology, 1998, 31: 322-326)
After a food fasting period of 6 hours, animals were divided into groups of at least 8 animals each. Doses of products were given by oral sounding 1 h before the ischemia induction. Animals were anaesthetized with pentobarbital (40 mg/kg, i.p.) and the standard limb lead II electrocardiogram was recorded to detect the S-wave depression. 0.3 U/kg arginine-vasopressin (AVP) (Sigma Chemicals, St Louis, Mo., USA) was injected into the carotid artery to induce vasoconstriction of small coronary arteries and increase in coronary resistance. In all the groups received AVP 60 min after, the test drug. In all groups, after AVP injection of 10 minutes ECG recording was performed.
The results are shown in table 16 and are expressed as S-wave decrements (μvolts).

[3] = test system: HUVEC cells; assay: In vitro protection against cytotoxicity induced by oxygen radicals (peroxynitrite), XTT method; format: cell-based, human; settings: HUVEC pre-treated with 50 μM compound for one hour, then 800 μM peroxynitrite overnight
Source text: The method used is substantially the same as described by Caveda L., et al. (J. Clin. Invest. […]; 98: 886-893).
For the determination of the capacity to inhibit the cytotoxicity induced by oxygen radicals Human Umbilical Vein Endothelial Cells (HUVEC) were used. HUVEC were isolated and cultured in M199 and 20% FCS (Fetal Calf Serum).
Test XTT assay is based on […] by the metabolically active cells of the salt of tetrazolio XTT to form an orange product, the formazan dye formed is soluble and is directly quantified using an spectrophotometer.
HUVEC cells were cultivated until a sub-confluence status in a 96 well tissue culture plate and pre-treated with 50 μM of the compound for one hour. After that, cells were treated with 800 μM of peroxynitrite for an overnight.
After overnight incubation cells were incubated with the yellow XTT solution (final concentration 0.3 mg/ml) for 4 hours. After this incubation period, orange formazan solution was formed, which was spectrophotometrically quantified using an ELISA plate reader at 450 nm
The results are shown in table 15 and are expressed as percentage of death cells.

[4] = test system: heparinized plasma (plasma lipoproteins); assay: Inhibition of plasma oxidation induced by Cu2+ (absorbance 234 nm); format: biochemical; settings: compounds at 10 μM; 50 μM CuSO4; mean ± s.e.m.
Protocol: The method used in the assays to determine the effect of compounds on the capacity of oxidation of the plasma is substantially the same as described in Spranger T. et al., Chem Phys Lipids 1998; 91: 39-52.
Lipoprotein oxidation induced in vitro in plasma is expected to represent a relevant model of the lipoprotein oxidation in the arterial wall. Oxidation of plasma lipoproteins was assessed as the capacity of oxidation of heparinized plasma and was measured by spectrophotometry as in increase in absorbance at 234 nm. The compounds were added in vitro to determine their inhibitory activity over the capacity of oxidation of plasma induced by Cu^2+ (CuSO4). Heparinized plasma was diluted with phosphate-buffered saline solution (PBS) containing 0.16 M NaCl, and the oxidation was started by 50 μM CuSO4. Experimental samples were incubated at 37° C. and the increase in absorbance at 234 nm was automatically recorded every 15 min for at least 12 h. The effect of compounds over the capacity of oxidation of plasma induced by Cu^2+ was tested at 7 different concentrations using heparinizaded plasma from 7 different healthy donors.

[5] = test system: platelets (Human Platelet Rich Plasma); assay: In vitro inhibition of ADP-induced platelet aggregation; format: cell-based; settings: submaximal ADP (1-4 μM), mean ± s.d.
Protocol: The method used in the assays is substantially the same as described in following reference: • * Sales, E., at al., Br. J. Pharmacol. 112 (1994); 1071-1076.
The compounds are tested at four different concentrations, using platelet rich plasma from not less than 6 different healthy human donors. The results obtained are compared to those from 5-isosorbide mononitrate, which is used as reference product.
The results are shown in table 2 and are expressed as IC50 (inhibitory concentration 50), which is the concentration of each of the tested compounds yielding an inhibition equal to 50% of the aggregation obtained with a submaximal concentration (1-4 μM) of ADP (a submaximal concentration of ADP is the minimal amount of ADP which produces the maximal aggregation).

[6] = test system: Rats, left carotid artery thrombosis (FeCl3); assay: In vivo antithrombotic effect, FeCl3 carotid artery thrombosis; set-up: species or system rat; settings: single oral dose of 100 mg/Kg; no occlusion during 60 min after FeCl3 patch
Protocol: The method used is substantially the same as described by Kurz (Kurz K. D., et al., Thromb. Res. 1990, 60:269-280) and modified by Feuerstein (Feuerstein G. Z., et al., Artherioscler. Thromb. Vase. Biol. 1999, 19: 2554-25562).
Rats received a single oral dose of 100 mg/Kg of the compounds.
Forty-five minutes after dosing rats were anaesthetized with sodium pentobarbital (40 mg/kg, i.p.) and they were placed later dorsally on a heated (37° C.) surgical board.
The left carotid artery was isolated and a Parafilm 4 sheet (7×20 mm, American National Can) was placed under it. An electromagnetic sounding of flow (Transonic Systems Inc.) was placed on the artery to measure blood flow.
(§1) Sixty minutes after product administration, a paper patch saturated with FeCl3 solution (70%) was placed (and not removed for the whole duration of the experiment) on the left carotid artery downstream from the sounding of flow to initiate thrombosis. The blood flow was controlled during the 60 min later to the application of the patch in the artery.
The vessel was considered totally occluded by the thrombus formed when no blood flow was detected (0.0 ml/min). In this model, thrombus formation usually takes place within 15 to 20 minutes in non-treated animals.

[7] = test system: Rats, left carotid artery thrombosis (FeCl3); assay: In vivo synergistic antithrombotic effect, FeCl3 carotid artery thrombosis, single drugs and combinations; set-up: species or system rat; settings: for Rate of animals with thrombotic occlusion: control 1
Protocol: The method used is substantially the same as described by Kurz (Kurz K. D., at al., Thromb. Res. 1990, 60: 269-280) and modified by Feuerstein (Feuerstein G. Z., et al., Artherioscler, Thromb. Vasc. Biol. 1999, 19: 2554-25562). […]
Forty-five minutes after dosing administration, rats were anaesthetized with sodium pentobarbital (40 mg/kg, i.p.) and they were placed later dorsally on a heated (37° C.) surgical board.
The left carotid artery was isolated and a Parafilm M sheet (7×20 mm, American National Can) was placed under it. An electromagnetic sounding of flow (Transonic Systems Inc.) was placed on the artery to measure blood flow.
as §1
The vessel was considered totally occluded by the thrombus formed when no blood flow was detected (0.0 ml/min). In this model, occlusive thrombus formation usually takes place within 15 to 20 minutes in non-treated animals.
The fractional product concept was used to identify synergy between the compounds. In accordance with this concept, if we consider the full protection of the animal as:
[formula] where A is the rate of animals with thrombotic occlusion in treated group; and B is the rate of animals with thrombotic occlusion in the control group.
For two drugs that act of independent way:
[formula] where A1 is the rate of animals with thrombotic occlusion in the treatment group A1; A2 is the rate of animals with thrombotic occlusion in the treatment group A2; and B is the rate of animals with thrombotic occlusion in the control group
If the protection obtained with the combination of the drugs is higher than the fractional inhibition for two compounds acting independently then synergism is considered to occur.
The results are shown in table 14 and are expressed as rate of animals with thrombotic occlusion in each group.

[8] = test system: LDL; assay: Inhibition of LDL oxidation induced by haemin and H2O2 (conjugated dienes, 234 nm); format: biochemical, human; settings: compounds at 10 μM; 2.5 μM haemin and 5 μM H2O2; mean ± s.e.m.
Source text: The method used in the assays to determine the effect of the compounds on LDL oxidation is substantially the same as described in the following references: • Sprenger T., et al., Chem. Phys. Lipids 1998; 91:39-52 • Lynch S. M., et al., Biochim. Biophys. Acta 2000; 1485:11-22 • Pedreño J., et al., Thromb. Res. 2000; 99: 51-60.
The method used in the assays to isolate LDL particles from fresh human plasma is substantially the same as described in Pedreño J., et al., Atherosclerosis 2001; 155: 99-112.
Oxidative modification of low-density lipoprotein (LDL) is currently believed to be a central event it the development of atherosclerotic cardiovascular disease. The exposition of LDL to globin-free haemin (the complex of ferric ion (Fe^3+) with protoporphyrin IX), derived from the haemoglobin in circulating erythrocytes, serves as a physiological source of pro-oxidant Fe^3+ capable to promoting LDL oxidation. The compounds were added in vitro to determine their inhibitory activity on LDL oxidation induced by haemin and H2O2. LDL at a final protein concentration of 0.2 mg/ml was incubated in the presence of 2.5 μM haemin and 5 μM H202. Oxidative modification of LDL particles was assessed by measurement of conjugated dienes. Experimental samples were incubated at 37° C. and the increase in absorbance at 234 nm was automatically recorded every 5 min for at least 5 h. The effect of compounds on the LDL oxidation induced by haemin was tested at 7 different concentrations using LDL preparations from 7 different healthy donors.

[9] = artery ring contracted with 1 μM Phenylephrine, mean ± s.d.
[10] = Acetyl salicylic acid 100 mg/Kg/day, oral, for 3 days
[11] = Clopidogrel 1.5 mg/Kg/day, oral for 3 days

EC50 [1, 9]: 24 ± 5 µM
Molecule: 2-thioisosorbide [(9)]
Protection of S-wave decrement ([2]; 20 mg/kg): 64%
S-wave decrement ([2]; 20 mg/kg): 16.5 ± 9.8 μV
Protection of S-wave decrement ([2]; 100 mg/kg): 79%
S-wave decrement ([2]; 100 mg/kg): 9.7 ± 4.6 μV

melting point: 115 °C
Molecule: C[S@@+]([O-])[C@H]1CO[C@H]2[C@@H]1OC[C@H]2O[N+](=O)[O-] (as salt: nitrate) [(4), 2-[(R)-methylsulfinyl]isosorbide 5-mononitrate]

Molecule: O=[N+]([O-])O[C@@H]1CO[C@H]2[C@@H]1OC[C@@H]2SS[C@H]1CO[C@H]2[C@@H]1OC[C@H]2O[N+](=O)[O-] [(2), 5,5′-dinitrato-2,2′-dithiodiisosorbide]
% of death cells [3]: 80%
% of increment of lag phase with respect to control (plasma oxidation) [4]: 7 ± 1%
EC50 [1]: 5.3 ± 1 µM
IC50 [5]: 10 ± 7 µM

EC50 [1, 9]: 43 ± 6 µM
IC50 [5]: 410 ± 90 µM
Molecule: CS[C@H]1CO[C@H]2[C@@H]1OC[C@H]2O[N+](=O)[O-] [(3), 2-methylthioisosorbide 5-mononitrate]
% of death cells [3]: 80%
% of animals fully protected [6]: 100%

EC50 [1, 9]: 338 ± 10 µM
IC50 [5]: 1000 ± 10 µM
Molecule: C[S@@+]([O-])[C@H]1CO[C@H]2[C@@H]1OC[C@H]2O[N+](=O)[O-] [(4), 2-[(R)-methylsulfinyl]isosorbide 5-mononitrate]
% of animals fully protected [6]: 80%
Protection of S-wave decrement ([2]; 20 mg/kg): 21%
S-wave decrement ([2]; 20 mg/kg): 36.5 ± 11.6 μV
Protection of S-wave decrement ([2]; 100 mg/kg): 87%
S-wave decrement ([2]; 100 mg/kg): 5.9 ± 3.9 μV

IC50 [5]: 850 ± 150 µM
Molecule: C[S@+]([O-])[C@H]1CO[C@H]2[C@@H]1OC[C@H]2O[N+](=O)[O-] [(4bis), 2-[(S)-methylsulfinyl]isosorbide 5-mononitrate]

EC50 [1, 9]: 1.2 ± 0.1 µM
IC50 [5]: 1.9 ± 0.5 µM
Molecule: O=NS[C@H]1CO[C@H]2[C@@H]1OC[C@H]2O[N+](=O)[O-] [(6), S-nitroso-2-thioisosorbide 5-mononitrate]

EC50 [1, 9]: 50 ± 9 µM
IC50 [5]: 580 ± 21 µM
Molecule: O=[N+]([O-])O[C@@H]1CO[C@H]2[C@@H]1OC[C@@H]2SC1CCCCO1 (stereo partly shown) [(7), 2-(tetrahydropyran-2-yl-thio)isosorbide 5-mononitrate]

Molecule: CC(=O)Oc1ccccc1C(=O)O [Acetyl salicylic acid]
% of animals protected [7, 10]: (50%)
Rate of animals with thrombotic occlusion [7, 10]: 0.50

Molecule: COC(=O)[C@H](c1ccccc1Cl)N1CCc2sccc2C1 [Clopidogrel]
% of animals protected [7, 11]: (50%)
Rate of animals with thrombotic occlusion [7, 11]: 0.50

Molecule: O=[N+]([O-])O[C@@H]1CO[C@H]2[C@@H]1OC[C@@H]2O [Isosorbide 5-mononitrate, reference compound]
% of increment of lag phase with respect to control (LDL oxidation) [8]: 0%
% of increment of lag phase with respect to control (plasma oxidation) [4]: 0%
EC50 [1, 9]: 920 ± 200 µM
IC50 [5]: 2680 ± 330 µM
